In patent US10633379B2, “Bromodomain inhibitors” (AbbVie Inc., priority 2016, dated 2020):

What was measured:
BRD4 (BDI_K57-E168) = BRD4 (BDI_K57-E168) (Homo sapiens (Human), UniProt O60885); test: TR-FRET bromodomain binding assay, BRD4 BDI; conditions: mean Ki, calculated from IC50, probe Kd and probe concentration
Procedure, shortened: (§1)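 His-tagged BRD4 BDI (12 nM, with 100 nM Alexa647 BET-inhibitor probe) or BDII (4 nM, 30 nM probe), plus 1 nM Eu-anti-His antibody, in pH 6.0 phosphate buffer with 2% DMSO. Equilibrated 1 h at room temperature and read by TR-FRET. IC50 from a 4-parameter fit was converted to Ki using probe Kd and probe concentration.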

BRD4 (BDII_E352-M457) = BRD4 (BDII_E352-M457) (Homo sapiens (Human), UniProt O60885); test: TR-FRET bromodomain binding assay, BRD4 BDII; conditions: mean Ki, calculated from IC50, probe Kd and probe concentration
Procedure, shortened: as §1

Compound | Ki (BRD4 (BDI_K57-E168)) [µM] | Ki (BRD4 (BDII_E352-M457)) [µM]
CCNC(=O)c1cc2c(-c3cc(C(C)(C)O)c(F)cc3Oc3c(C)cccc3C)cn(C)c(=O)c2[nH]1 [Example 64, 4-[2-(2,6-dimethylphenoxy)-4-fluoro-5-(2-hydroxypropan-2-yl)phenyl]-N-ethyl-6-methyl-7-oxo-6,7-dihydro-1H-pyrrolo[2,3-c]pyridine-2-carboxamide] | 0.181 | 0.0004
CCNC(=O)c1cc2c(-c3cc(C(C)(C)O)c(F)cc3Oc3c(C)cc(F)cc3C)cn(C)c(=O)c2[nH]1 [Example 65, N-ethyl-4-[4-fluoro-2-(4-fluoro-2,6-dimethylphenoxy)-5-(2-hydroxypropan-2-yl)phenyl]-6-methyl-7-oxo-6,7-dihydro-1H-pyrrolo[2,3-c]pyridine-2-carboxamide] | 0.222 | 0.0013
CCNC(=O)c1cc2c(-c3cc(C(C)(O)CO)ccc3Oc3c(C)cccc3C)cn(C)c(=O)c2[nH]1 (stereo not drawn) [Example 66, 4-[5-(1,2-dihydroxypropan-2-yl)-2-(2,6-dimethylphenoxy)phenyl]-N-ethyl-6-methyl-7-oxo-6,7-dihydro-1H-pyrrolo[2,3-c]pyridine-2-carboxamide] | 0.289 | 0.0014
CCNC(=O)c1cc2c(-c3cc(C(C)(O)CCO)ccc3Oc3c(C)cccc3C)cn(C)c(=O)c2[nH]1 (stereo not drawn) [Example 67, 4-[5-(2,4-dihydroxybutan-2-yl)-2-(2,6-dimethylphenoxy)phenyl]-N-ethyl-6-methyl-7-oxo-6,7-dihydro-1H-pyrrolo[2,3-c]pyridine-2-carboxamide] | 0.259 | 0.0011
CCNC(=O)c1cc2c(-c3cc(C(C)(C)O)ccc3Oc3c(C)cccc3C(F)F)cn(C)c(=O)c2[nH]1 [Example 70, 4-{2-[2-(difluoromethyl)-6-methylphenoxy]-5-(2-hydroxypropan-2-yl)phenyl}-N-ethyl-6-methyl-7-oxo-6,7-dihydro-1H-pyrrolo[2,3-c]pyridine-2-carboxamide] | 1.34 | 0.0037
Cc1cccc(C(F)F)c1Oc1ccc(C(C)(C)O)cc1-c1cn(C)c(=O)c2[nH]c(C(=O)NC(C)(C)C)cc12 [Example 71, N-tert-butyl-4-{2-[2-(difluoromethyl)-6-methylphenoxy]-5-(2-hydroxypropan-2-yl)phenyl}-6-methyl-7-oxo-6,7-dihydro-1H-pyrrolo[2,3-c]pyridine-2-carboxamide] | 2.31 | 0.0075
CCNC(=O)c1cc2c(-c3cc(C(C)(C)O)ccc3Oc3c(C)cc(Br)cc3C)cn(C)c(=O)c2[nH]1 [Example 72, 4-[2-(4-bromo-2,6-dimethylphenoxy)-5-(2-hydroxypropan-2-yl)phenyl]-N-ethyl-6-methyl-7-oxo-6,7-dihydro-1H-pyrrolo[2,3-c]pyridine-2-carboxamide] | 0.794 | 0.0013
CCNC(=O)c1cc2c(-c3cc(C(C)(C)O)ccc3Oc3c(C)cc(C#N)cc3C)cn(C)c(=O)c2[nH]1 [Example 73, 4-[2-(4-cyano-2,6-dimethylphenoxy)-5-(2-hydroxypropan-2-yl)phenyl]-N-ethyl-6-methyl-7-oxo-6,7-dihydro-1H-pyrrolo[2,3-c]pyridine-2-carboxamide] | 0.417 | 0.0015
CCNC(=O)c1cc2c(-c3cc(C(C)(C)O)ccc3Oc3c(C)ccnc3C)cn(C)c(=O)c2[nH]1 [Example 74, 4-{2-[(2,4-dimethylpyridin-3-yl)oxy]-5-(2-hydroxypropan-2-yl)phenyl}-N-ethyl-6-methyl-7-oxo-6,7-dihydro-1H-pyrrolo[2,3-c]pyridine-2-carboxamide] | 0.551 | 0.003
Cc1cc(F)cc(C)c1Oc1ccc(C(C)(C)O)cc1-c1cn(C)c(=O)c2[nH]c(C(=O)NC34CC(C3)C4)cc12 [Example 75, N-(bicyclo[1.1.1]pentan-1-yl)-4-[2-(4-fluoro-2,6-dimethylphenoxy)-5-(2-hydroxypropan-2-yl)phenyl]-6-methyl-7-oxo-6,7-dihydro-1H-pyrrolo[2,3-c]pyridine-2-carboxamide] | 0.743 | 0.0029
Cc1cccc(C)c1Oc1ccc(C(C)(C)O)nc1-c1cn(C)c(=O)c2[nH]c(C(=O)NC(C)(C)C)cc12 [Example 76, N-tert-butyl-4-[3-(2,6-dimethylphenoxy)-6-(2-hydroxypropan-2-yl)pyridin-2-yl]-6-methyl-7-oxo-6,7-dihydro-1H-pyrrolo[2,3-c]pyridine-2-carboxamide] | 0.927 | 0.0087
CCNC(=O)c1cc2c(-c3nc(C(C)(C)O)ccc3Oc3c(C)cccc3C)cn(C)c(=O)c2[nH]1 [Example 77, 4-[3-(2,6-dimethylphenoxy)-6-(2-hydroxypropan-2-yl)pyridin-2-yl]-N-ethyl-6-methyl-7-oxo-6,7-dihydro-1H-pyrrolo[2,3-c]pyridine-2-carboxamide] | 0.606 | 0.0022
CCNC(=O)c1cc2c(-c3cc(C(C)(O)CF)cnc3Oc3c(C)cc(F)cc3C)cn(C)c(=O)c2[nH]1 (stereo not drawn) [Example 78, N-ethyl-4-[2-(4-fluoro-2,6-dimethylphenoxy)-5-(1-fluoro-2-hydroxypropan-2-yl)pyridin-3-yl]-6-methyl-7-oxo-6,7-dihydro-1H-pyrrolo[2,3-c]pyridine-2-carboxamide] | 0.253 | 0.0022
CCNC(=O)c1cc2c(-c3cc(C(C)(O)C(F)(F)F)cnc3Oc3c(C)cc(F)cc3C)cn(C)c(=O)c2[nH]1 (stereo not drawn) [Example 79, N-ethyl-4-[2-(4-fluoro-2,6-dimethylphenoxy)-5-(1,1,1-trifluoro-2-hydroxypropan-2-yl)pyridin-3-yl]-6-methyl-7-oxo-6,7-dihydro-1H-pyrrolo[2,3-c]pyridine-2-carboxamide] | 0.225 | 0.0025
CCNC(=O)c1cc2c(-c3cc(C(O)(C(F)(F)F)C(F)(F)F)cnc3Oc3c(C)cc(F)cc3C)cn(C)c(=O)c2[nH]1 [Example 80, N-ethyl-4-[2-(4-fluoro-2,6-dimethylphenoxy)-5-(1,1,1,3,3,3-hexafluoro-2-hydroxypropan-2-yl)pyridin-3-yl]-6-methyl-7-oxo-6,7-dihydro-1H-pyrrolo[2,3-c]pyridine-2-carboxamide] | 0.486 | 0.0052

Next, values leading:

Ki (BRD4 (BDI_K57-E168)) [µM] | Ki (BRD4 (BDII_E352-M457)) [µM] | Compound
0.043 | 0.0011 | CCNC(=O)c1cc2c(-c3cc(C(C)(C)O)ccc3Oc3c(C)cccc3F)cn(C)c(=O)c2[nH]1 [Example 81, N-ethyl-4-[2-(2-fluoro-6-methylphenoxy)-5-(2-hydroxypropan-2-yl)phenyl]-6-methyl-7-oxo-6,7-dihydro-1H-pyrrolo[2,3-c]pyridine-2-carboxamide]
0.35 | 0.0011 | CCNC(=O)c1cc2c(-c3cc(C(C)(O)CF)ccc3Oc3c(C)cc(F)cc3C)cn(C)c(=O)c2[nH]1 (stereo not drawn) [Example 83, N-ethyl-4-[2-(4-fluoro-2,6-dimethylphenoxy)-5-(1-fluoro-2-hydroxypropan-2-yl)phenyl]-6-methyl-7-oxo-6,7-dihydro-1H-pyrrolo[2,3-c]pyridine-2-carboxamide]
0.61 | 0.0019 | CCNC(=O)c1cc2c(-c3cc(C(C)(C)O)ccc3Oc3c(C)cc(Cl)cc3C)cn(C)c(=O)c2[nH]1 [Example 84, 4-[2-(4-chloro-2,6-dimethylphenoxy)-5-(2-hydroxypropan-2-yl)phenyl]-N-ethyl-6-methyl-7-oxo-6,7-dihydro-1H-pyrrolo[2,3-c]pyridine-2-carboxamide]
0.433 | 0.0018 | CCNC(=O)c1cc2c(-c3cc(C(C)(C)O)ccc3Oc3c(C)cc(S(C)(=O)=O)cc3C)cn(C)c(=O)c2[nH]1 [Example 85, N-ethyl-4-{5-(2-hydroxypropan-2-yl)-2-[4-(methanesulfonyl)-2,6-dimethylphenoxy]phenyl}-6-methyl-7-oxo-6,7-dihydro-1H-pyrrolo[2,3-c]pyridine-2-carboxamide]
0.416 | 0.0014 | CCNC(=O)c1cc2c(-c3cc(C(C)(O)C(F)(F)F)ccc3Oc3c(C)cc(F)cc3C)cn(C)c(=O)c2[nH]1 (stereo not drawn) [Example 86, N-ethyl-4-[2-(4-fluoro-2,6-dimethylphenoxy)-5-(1,1,1-trifluoro-2-hydroxypropan-2-yl)phenyl]-6-methyl-7-oxo-6,7-dihydro-1H-pyrrolo[2,3-c]pyridine-2-carboxamide]
0.501 | 0.0028 | Cc1cc(F)cc(C)c1Oc1ccc(C(C)(O)CF)cc1-c1cn(C)c(=O)c2[nH]c(C(=O)NC(C)(C)C)cc12 (stereo not drawn) [Example 87, N-tert-butyl-4-[2-(4-fluoro-2,6-dimethylphenoxy)-5-(1-fluoro-2-hydroxypropan-2-yl)phenyl]-6-methyl-7-oxo-6,7-dihydro-1H-pyrrolo[2,3-c]pyridine-2-carboxamide]
0.389 | 0.0011 | CCNC(=O)c1cc2c(-c3cc(C(C)(O)CF)ccc3Oc3c(C)cc(Cl)cc3C)cn(C)c(=O)c2[nH]1 (stereo not drawn) [Example 88, 4-[2-(4-chloro-2,6-dimethylphenoxy)-5-(1-fluoro-2-hydroxypropan-2-yl)phenyl]-N-ethyl-6-methyl-7-oxo-6,7-dihydro-1H-pyrrolo[2,3-c]pyridine-2-carboxamide]
0.281 | 0.0017 | CCNC(=O)c1cc2c(-c3cc(C(C)(C)O)cnc3-c3ccc(F)cc3F)cn(C)c(=O)c2[nH]1 [Example 89, 4-[2-(2,4-difluorophenyl)-5-(2-hydroxypropan-2-yl)pyridin-3-yl]-N-ethyl-6-methyl-7-oxo-6,7-dihydro-1H-pyrrolo[2,3-c]pyridine-2-carboxamide]
0.158 | 0.002 | Cc1cc(S(C)(=O)=O)cc(C)c1Oc1ccc(C(C)(C)O)cc1-c1cn(C)c(=O)c2[nH]c(C(=O)NC(C)(C)C)cc12 [Example 90, N-tert-butyl-4-{5-(2-hydroxypropan-2-yl)-2-[4-(methanesulfonyl)-2,6-dimethylphenoxy]phenyl}-6-methyl-7-oxo-6,7-dihydro-1H-pyrrolo[2,3-c]pyridine-2-carboxamide]
